≈ marks a conversion by molar mass, not a printed value. Read-outs that look alike come from different tables or passages of the source. Where a SMILES comes first, the peptide text is derived from it. Bridges are numbered along the chain shown (N, C = ends). Roman numbers before positions name the chains, in order. Side-chain parts run from the residue outwards. The star is where a group is joined. Myristoyl = CCCCCCCCCCCCCC(=O)*; Decanoyl = CCCCCCCCCC(=O)*; Octanoyl = CCCCCCCC(=O)*
Legend:
[1] = Lipopeptide hydrophobicity by RP-HPLC (adjusted retention time); type: physicochemical; conditions: for Adjusted Retention Time: RP-HPLC, 20–65% acetonitrile over 30 min, indicator of hydrophobicity; for Difference in retention time calculated as tR’C—tR’B: between corresponding surfactants of series C and B
Description: The identity of the purified peptides was confirmed with electrospray ionization mass spectrometry (ESI-MS) in positive ion mode. Results of MS analyses and net charge are attached in Supplementary Materials (Table S1). Peptides’ hydrophobicity was evaluated by analytical reversed-phase high-performance liquid chromatography (RP-HPLC). The critical aggregation concentrations (CACs) of the lipopeptides were determined in unbuffered aqueous solution at 298 K by measuring the surface tension as a function of lipopeptide concentration. The measurements were carried out by the Du Noüy ring method on a K100 tensiometer. The surface tension data were plotted against the logarithm of lipopeptide concentration. CAC was found as the intersection of two lines being linear regression of data below and above CAC.
Lipopeptide hydrophobicity was determined as described previously. To do this, a Waters Alliance e2695 system with a Waters 2998 PDA Detector (software-Empower 3, Waters, Milford, MA, USA) was used. All analyses were carried out on a Waters X-Bridge Shield RP-18 column (3.0 × 100 mm, 3.5 μm particle size, 130 Å pore size). The Shield Technology column with embedded polar groups was used to minimize interactions of unreacted silanol groups with basic lipopeptides. The peptides were dissolved in water (0.1% TFA, v/v) up to a concentration of 1 mg/mL. UV detection at 214 nm was used, and samples (10 μL) were eluted with a linear 20–65% acetonitrile gradient in deionized water over 30 min at 25.0 ± 0.1 °C. The mobile phase flow rate was 0.5 mL/min. Both eluents contained 0.1% (v/v) of TFA. Each peptide sample was analyzed in triplicate. The maximum standard deviation and coefficient of variation were 0.044 and 0.85%, respectively.

C. albicans ATCC 10231 = test system: C. albicans ATCC 10231
Description: (§1) The Acinetobacter baumannii ATCC BAA-1605, Enterococcus faecium ATCC 700221, Escherichia coli ML-35 ATCC 43827, Klebsiella aerogenes ATCC 13048, Klebsiella pneumoniae ATCC 700603, Pseudomonas aeruginosa ATCC 9027, Staphylococcus aureus ATCC 25923, Staphylococcus aureus ATCC 33591, Candida albicans ATCC 10231, Candida glabrata ATCC 15126, strains were acquired from the American Type Culture Collection (ATCC). All the strains were stored at −80 °C in Roti-Store cryo vials and before the tests were transferred into fresh Mueller–Hinton broth (MHB, Biocorp, Warsaw, Poland) for bacteria or RPMI-1640 (Sigma-Aldrich, Steinheim, Germany) for fungi and incubated for 24 h at 37 °C. Then, the cultures were seeded on the Mueller–Hinton agar (BioMaxima, Lublin, Poland) or Sabouraud dextrose agar (SDA, BioMaxima, Lublin, Poland) plates, respectively, and incubated as just mentioned. These agar cultures were used for further microbiological assays. Cell densities for all assays were adjusted spectrophotometrically (Multiskan GO Microplate Spectrophotometer, Thermo Fisher Scientific, Vantaa, Finland) at 600 and 530 nm for bacteria and fungi, respectively.
(§2) The MICs were determined by the broth microdilution method according to the Clinical and Laboratory Standard Institute guidelines. For this purpose, initial inoculums of bacteria (5 × 10^5 CFU/mL) in MHB and yeasts (2 × 10^3 CFU/mL) in RPMI-1640 with 2% D-glucose were exposed to the ranging concentration of lipopeptides (0.5–256 μg/mL) and incubated at 37 °C for 18 h and 24 h, respectively. The experiments were conducted on 96-well microtiter polystyrene plates (Kartell, Noviglio, Italy). The growth was assessed visually after incubation, and the MIC was assumed as the lowest peptide concentration at which a noticeable growth of microorganisms was inhibited. All experiments were conducted in triplicate.

C. glabrata ATCC 15126 = test system: C. glabrata ATCC 15126
Description: as §1, §2

[2] = test system: Acinetobacter baumannii ATCC BAA 1605; type: cell-based; conditions: ATCC BAA 1605, 24 h
Description: (§3) Biofilm is associated with life-threating infections due to its outstanding resistance to antibiotics. In this study, the antibiofilm characteristics of USCLs and gemini surfactants were evaluated.
(§4) The MBECs were determined as described previously using 96-well polystyrene flat-bottom plates. For this purpose, 24 h cultures of microorganisms were diluted to obtain a final density of 5.0 × 10^5 CFU/mL and 2.0 × 10^5 CFU/mL of bacteria and fungi, respectively. Microorganisms were diluted in MHB or RPMI-1640 with 2% D-glucose (bacteria and fungi, respectively). Briefly, 100 µL of cell suspension was added into the test plates. After 24 h of incubation at 37 °C, the wells were rinsed three times with a PBS (pH 7.4) to remove non-adherent cells. Subsequently, 100 μL of the test compounds in a concentration range (1–512 μg/mL) were added to each well. After 24 h of incubation at 37 °C, 20 μL of a cell viability reagent was added (resazurin, 4 g/L; Sigma Aldrich, St. Louis, MO, USA). The MBEC was read after 1 h. The determined values were recorded as the lowest concentration at which the reduction of resazurin (from blue to pink) was lower or equal to 10 ± 0.5% as compared to the positive (100%) and negative (0%) controls. The reduction was monitored by measuring absorbance at 570 nm (reduced) and 600 nm (oxidized) using a microplate spectrophotometer (Multiskan GO Microplate Spectrophotometer, Thermo Fisher Scientific, Vantaa, Finland). All experiments were conducted in triplicate.

[3] = test system: Candida albicans ATCC 10231; type: cell-based; conditions: ATCC 10231, 24 h
Description: as §3, §4

[4] = test system: Candida glabrata ATCC 15126; type: cell-based; conditions: ATCC 15126, 24 h
Description: as §3, §4

[5] = test system: Enterococcus faecium ATCC 700221; type: cell-based; conditions: ATCC 700221, 24 h
Description: as §3, §4

[6] = test system: Klebsiella aerogenes ATCC 13048; type: cell-based; conditions: ATCC 13048, 24 h
Description: as §3, §4

[7] = test system: Klebsiella pneumoniae ATCC 700603; type: cell-based; conditions: ATCC 700603, 24 h
Description: as §3, §4

[8] = test system: Pseudomonas aeruginosa ATCC 9027; type: cell-based; conditions: ATCC 9027, 24 h
Description: as §3, §4

[9] = test system: Staphylococcus aureus ATCC 25923; type: cell-based; conditions: ATCC 25923, 24 h
Description: as §3, §4

[10] = test system: Staphylococcus aureus ATCC 33591; type: cell-based; conditions: ATCC 33591, 24 h
Description: as §3, §4

| SMILES | Adjusted Retention Time [1] [min] | Difference in retention time calculated as tR’C—tR’B [1] [min] | MIC C. albicans ATCC 10231 (C. albicans ATCC 10231; ATCC 10231, 24 h) [µg/mL] | MIC C. glabrata ATCC 15126 (C. glabrata ATCC 15126; ATCC 15126, 24 h) [µg/mL] | MBEC Acinetobacter baumannii ATCC BAA 1605 [2] [µg/mL] | MBEC Candida albicans ATCC 10231 [3] [µg/mL] | MBEC Candida glabrata ATCC 15126 [4] [µg/mL] | MBEC Enterococcus faecium ATCC 700221 [5] [µg/mL] | MBEC Klebsiella aerogenes ATCC 13048 [6] [µg/mL] | MBEC Klebsiella pneumoniae ATCC 700603 [7] [µg/mL] | MBEC Pseudomonas aeruginosa ATCC 9027 [8] [µg/mL] | MBEC Staphylococcus aureus ATCC 25923 [9] [µg/mL] | MBEC Staphylococcus aureus ATCC 33591 [10] [µg/mL] | MIC C. albicans ATCC 10231 (C. albicans ATCC 10231; planktonic culture) | MIC C. glabrata ATCC 15126 (C. glabrata ATCC 15126; planktonic culture) |
| --- | --- | --- | --- | --- | --- | --- | --- | --- | --- | --- | --- | --- | --- | --- | --- |
| CCCCCCCCCC(=O)N[C@@H](CCCNC(=N)N)C(=O)N[C@@H](CCCNC(=N)N)C(=O)N[C@@H](CSSC[C@H](NC(=O)[C@H](CCCNC(=N)N)NC(=O)[C@H](CCCNC(=N)N)NC(=O)CCCCCCCCC)C(N)=O)C(N)=O [Compound C2] (I: Decanoyl-Arg-Arg-Cys-NH2 / II: Decanoyl-Arg-Arg-Cys-NH2; disulfide I:3-II:3) | 13.94 | 0.21 | 4 (≈ 3.41 µM) | 8 (≈ 6.83 µM) | 256 | 32 | 512 | 4 | 256 | 512 | 512 | 32 | 8 |  |  |
| CCCCCCCCCC(=O)N[C@@H](CCCNC(=N)N)C(=O)N[C@@H](CCCNC(=N)N)C(=O)NCCCC[C@H](NC(=O)[C@H](CCCNC(=N)N)NC(=O)[C@H](CCCNC(=N)N)NC(=O)CCCCCCCCC)C(N)=O [Compound B2] (Decanoyl-Arg-Arg-Lys([Arg-Arg-Decanoyl])-NH2) | 13.73 |  | 8 (≈ 7.42 µM) | 4 (≈ 3.71 µM) | 128 | 32 | 512 | 4 | 256 | 256 | 512 | 8 | 4 |  |  |
| CCCCCCCC(=O)N[C@@H](CCCNC(=N)N)C(=O)N[C@@H](CCCNC(=N)N)C(=O)NCCCC[C@H](NC(=O)[C@H](CCCNC(=N)N)NC(=O)[C@H](CCCNC(=N)N)NC(=O)CCCCCCC)C(N)=O [Compound B1] (Octanoyl-Arg-Arg-Lys([Arg-Arg-Octanoyl])-NH2) | 8.11 |  | 64 (≈ 62.6 µM) | 64 (≈ 62.6 µM) | 512 | 256 | >512 | 128 | >512 | >512 | 512 | 32 | 32 |  |  |
| CCCCCCCC(=O)N[C@@H](CCCNC(=N)N)C(=O)N[C@@H](CCCNC(=N)N)C(N)=O [Compound A1, C8-RR-NH2] (Octanoyl-Arg-Arg-NH2) | 2.93 |  |  |  | >512 | >512 | >512 | >512 | >512 | >512 | >512 | >512 | >512 | >256 (−/−) µg/mL | >256 (−/−) µg/mL |
| CCCCCCC(CCCC)C(=O)N[C@@H](CCCNC(=N)N)C(=O)N[C@@H](CCCNC(=N)N)C(=O)N[C@@H](CSSC[C@H](NC(=O)[C@H](CCCNC(=N)N)NC(=O)[C@H](CCCNC(=N)N)NC(=O)C(CCCC)CCCCCC)C(N)=O)C(N)=O (some centres unmarked) [Compound C7] | 14.83 | 0.15 | 16 (≈ 13 µM) | 16 (≈ 13 µM) | 256 | 64 | 128 | 4 | 128 | 256 | 512 | 32 | 8 |  |  |
| CCCCCCCCCCCCCC(=O)N[C@@H](CCCNC(=N)N)C(=O)N[C@@H](CCCNC(=N)N)C(=O)NCCCC[C@H](NC(=O)[C@H](CCCNC(=N)N)NC(=O)[C@H](CCCNC(=N)N)NC(=O)CCCCCCCCCCCCC)C(N)=O [Compound B4] (Myristoyl-Arg-Arg-Lys([Arg-Arg-Myristoyl])-NH2) | 25.33 |  | 4 (≈ 3.36 µM) | 2 (≈ 1.68 µM) | 512 | 64 | 64 | 64 | 256 | 512 | >512 | 256 | 128 |  |  |

From paper PMC8036666, “Biological and Physico-Chemical Characteristics of Arginine-Rich Peptide Gemini Surfactants with Lysine and Cystine Spacers” (International Journal of Molecular Sciences, 2021)
